GI50 and TGI data for eight compounds are collected here from PubChem BioAssay (NCI).

“And” between values parts separate entries of the source, which are not always exact repeats. Equal entries are not always repeated.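 All cell lines were grown in 96-well plates and treated with compound for 48 hours. Abbreviation: GI50, concentration required for 50% inhibition of growth. TGI is the concentration that stops growth completely.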

What all share (experiment): inhibition of tumour cell growth, NCI panel, 48 h
The test system of test [1] is ACHN renal.
Test [2] has as its system BT-549 breast.
Test [3] concerns HCT-116 colon.
Test [4] relates to HCT-15 colon.
In test [5] the test system is HT29 colon.
The test system of test [6] is IGROV1 ovarian.
For test [7], the system named is MDA-MB-435.
Test [8] has as its system MOLT-4 leukemia.
The test system of test [9] is NCI-H226 lung.
For test [10], the system named is SNB-19 CNS.

In the case of `COc1ccc(-c2cc(/C=C/C(=O)c3cc(OC)c(OC)c(OC)c3)[nH]n2)cc1OC`, the GI50 was 1.45 µM in test [1]; 1.36 µM in test [2]; 0.425 µM in [3]; 1.19 µM in test [4]; 1.3 µM in test [5]; 2.72 µM in test [6]. Besides, the GI50 in [7] was 1.78 µM; in test [8] it was 1.81 µM; in test [9], 1.93 µM; in [10], 1.8 µM. For the same compound, the TGI in [1] was determined as 2.82 µM; in test [2] it was 2.93 µM; in test [3], 1.79 µM; in test [4], 3.85 µM; in [5] it was 2.73 µM; in [6] it was 8.61 µM. Further, the TGI was found to be 4.05 µM in test [7], 8.86 µM in test [8], 7.91 µM in test [9] and 5.32 µM in [10].
For the compound `CCN(CC)CCOc1ccc(/C=C2\CC3C4CC=C5C[C@@H](OC(C)=O)CC[C@]5(C)C4CC[C@]3(C)C2=O)cc1OC` (stereo not given in full), the GI50 in test [1] is 9.84 µM; in test [2], 11.4 µM; in test [3], 1.92 µM; in test [4], 2.96 µM; in test [5], 4.07 µM; in test [6], 4.65 µM. Also, the GI50 is 1.78 µM in test [7], 1.45 µM in test [8], 13.3 µM in test [9] and 47.1 µM in test [10]. Further, the TGI in test [1] is 21.5 µM; in [2] it was 33 µM; in test [3], 5.61 µM; in [4] it was 10 µM; in test [5], more than 100 µM; in [6], 16.4 µM. The TGI is 3.58 µM in test [7], more than 100 µM in test [8], 35.9 µM in test [9] and more than 100 µM in [10].
On to `CN(C)CCCN1c2ccccc2Sc2ccc(Cl)cc21`, for which the GI50 was 4.06 µM and 5.71 µM in test [1]; 10.9 µM and 11.2 µM in [2]; 3.28 µM and 3.6 µM in test [3]; 3.69 µM and 4.7 µM in test [4]; 3.26 µM and 3.96 µM in [5]; 11.7 µM and 4.63 µM in test [6]. Besides, the GI50 was 1.94 µM and 2.21 µM in test [7]; 4.78 µM and 6.84 µM in test [8]; 13.1 µM and 15.2 µM in [9]; 7.01 µM and 11.9 µM in test [10]. Also, the TGI is 14.8 µM and 18.3 µM in test [1]; 23.5 µM and 24.4 µM in test [2]; 10.9 µM and 12.8 µM in test [3]; 14.3 µM and 16.6 µM in test [4]; 10.8 µM and 13.6 µM in test [5]; 26.7 µM and 18.4 µM in test [6]. For the same compound, the TGI is 4.04 µM and 6.09 µM in test [7]; 18.4 µM and 23.7 µM in test [8]; 29.8 µM and 29.1 µM in [9]; 20.9 µM and 25 µM in test [10].
`COc1ccccc1/C=C\C(=O)c1ccccc1`: the GI50 is 5.4 µM in test [1]; 11 µM in [2]; 3.4 µM in test [3]; 4.8 µM in test [4]; 3.9 µM in [5]; 5.14 µM in test [6]. Besides, the GI50 in test [7] was 4.27 µM; in test [8] it was 2.9 µM; in test [9], 14.5 µM; in test [10], 4.38 µM. In addition, the TGI in test [1] is 17.5 µM; in [2], 23.3 µM; in test [3], 11.6 µM; in [4], 19.3 µM; in test [5] it was 17.3 µM; in [6] it was 18.1 µM. The TGI worked out at 16.5 µM in [7], 10.2 µM in [8], 29.8 µM in test [9] and 16.7 µM in [10].
In the case of `Cc1n(Cc2ccc3ccccc3c2)c(Cl)c(Cl)[n+]1Cc1ccc2ccccc2c1`, the GI50 in test [1] was 2.59 µM; in test [2], 1.65 µM; in [3], 1.62 µM; in test [4] it was 2.29 µM; in test [5] it was 1.76 µM; in test [6] it was 1.39 µM. The GI50 was 1.68 µM in [7], 2.31 µM in test [8], 2.48 µM in test [9] and 1.57 µM in test [10]. For the same compound, the TGI amounted to 8.07 µM in [1]; 3.17 µM in test [2]; 3.28 µM in test [3]; 6.52 µM in test [4]; 4.12 µM in test [5]; 2.81 µM in [6]. The TGI in [7] was determined as 3.19 µM; in test [8] it was 5.58 µM; in test [9], 6.97 µM; in test [10], 2.96 µM.
Take `O=C(O)Cn1ccnc1[N+](=O)[O-]`: the TGI in [1], in test [2], in test [3], in test [4], in test [5] and in test [6] was more than 100 µM in each case. The TGI in test [7], in test [8], in [9] and in test [10] was more than 100 µM throughout.
For the compound `CN(C)C(=O)SC1=C(c2c(Cl)cccc2Cl)C(=O)c2ccccc21`, the GI50 in [1] was 2.23 µM; in test [2], 9.78 µM; in [3] it was 1.75 µM; in test [4], 2.2 µM; in test [5], 3.47 µM; in test [6], 4.78 µM. Besides, the GI50 is 4.54 µM in test [7], 2.5 µM in test [8], 19.9 µM in test [9] and 15.8 µM in [10]. The TGI in test [1] amounted to 5.03 µM; in test [2], 23.5 µM; in test [3] it was 3.28 µM; in [4], 6.28 µM; in [5], 11.9 µM; in [6], 11.4 µM. In addition, the TGI in test [7] is 15.9 µM; in test [8], 7.06 µM; in test [9], 59.8 µM; in [10] it was 29.4 µM.
Consider `Nc1ncnc2c1c(-c1ccc(Oc3ccccc3)cc1)nn2C[C@@H]1SSC[C@@H]1O`, for which the GI50 was 0.398 µM in test [1]; 3.53 µM in test [2]; 0.101 µM in [3]; 0.57 µM in test [4]; 0.334 µM in test [5]; 0.839 µM in test [6]. The GI50 in test [7] is 0.101 µM; in test [8], 0.0304 µM; in [9], 1.59 µM; in [10] it was 1.03 µM. For the same compound, the TGI is 7.01 µM in [1]; 13.4 µM in test [2]; 1.64 µM in [3]; 5.98 µM in test [4]; 1.7 µM in test [5]; 3.26 µM in test [6]. Also, the TGI turned out to be 0.256 µM in test [7], 0.119 µM in test [8], 3.92 µM in test [9] and 14 µM in test [10].
